Laboratory results reported in patent EP1932831A1, “1,2-Diarylacetylene Derivatives of Acyltryptophanols” (Bayer Schering Pharma Aktiengesellschaft, priority 2006, dated 2008).

target: T1, human FSH receptor (Homo sapiens, UniProt P23945); assay: HTRF assay for measuring cAMP in cells (FSH antagonism); type: cell-based; settings: FSH-antagonistic effect; hFSHR clone 16 cells (CHO cells stably transfected with the human FSH receptor); in the presence of 1e-9 mol/l hFSH; 37°C for 2h
T1 construct: expressed in transfected cells; host or cells: CHO cells (hFSHR clone 16)
T1 sequence (P23945 18-695): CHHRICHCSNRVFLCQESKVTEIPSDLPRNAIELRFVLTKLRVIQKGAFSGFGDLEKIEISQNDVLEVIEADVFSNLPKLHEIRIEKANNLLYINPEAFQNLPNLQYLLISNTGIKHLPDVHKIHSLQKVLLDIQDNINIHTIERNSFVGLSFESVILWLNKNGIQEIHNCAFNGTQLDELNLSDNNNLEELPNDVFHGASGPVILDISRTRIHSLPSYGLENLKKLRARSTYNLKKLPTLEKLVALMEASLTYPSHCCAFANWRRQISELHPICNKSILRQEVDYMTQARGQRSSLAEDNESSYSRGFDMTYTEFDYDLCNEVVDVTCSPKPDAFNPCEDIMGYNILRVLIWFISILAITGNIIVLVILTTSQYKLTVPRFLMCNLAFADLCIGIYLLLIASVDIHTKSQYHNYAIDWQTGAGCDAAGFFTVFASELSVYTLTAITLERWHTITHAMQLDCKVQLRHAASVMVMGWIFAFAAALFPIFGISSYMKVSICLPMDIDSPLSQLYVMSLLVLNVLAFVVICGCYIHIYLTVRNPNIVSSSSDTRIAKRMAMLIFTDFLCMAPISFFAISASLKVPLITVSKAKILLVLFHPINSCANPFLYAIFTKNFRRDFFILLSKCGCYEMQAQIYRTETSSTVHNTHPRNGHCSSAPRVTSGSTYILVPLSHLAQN
Experimental: The method is based on a competitive immunoassay between native cAMP, which has been produced by the cells, and cAMP which is labelled with cAMPD2 conjugate. The tracer binding was visualized by a monoclonal antibody, anti-cAMP labelled with cryptate [HTRF = homogeneous time-resolved fluorescence]. The specific signal is inversely proportional to the cAMP concentration of the samples employed. The 665nm/ 620nm fluorescence ratio was evaluated.
Materials used: 96-well plates for the tissue culture, 96-well plates with black edge and black base (e.g. Fluotrac 600 from Greiner), 96-well plates for the substance dilutions of polypropylene and cAMP Femtomolar (4000wells Kit, CIS Bio International # 62AM5PEJ). Reagent used: BSA (bovine serum albumin) Fraction V protease-free, IBMX (3-isobutyl-1-methylxanthine), hFSH (human follicle stimulating hormone), Triton X-100 analytical grade, potassium fluoride analytical grade, G 418 (Geneticin) and Accutase.
Buffer 1 (washing and testing buffer) contained PBS, 1 mM CaCl2, 1 mM MgCl2, 0.2% glucose; 0.1% BSA, 1 mM IBMX.
Buffer 2 (2x lysis buffer) contained 1% Triton X-100 in PBS (without CaCl2 and MgCl2).
Buffer 3 (assay buffer) contained 50 mM potassium phosphate buffer (pH 7.0); 800 mM potassium fluoride; 0.2% BSA (always added fresh).
On day 1, the cells were seeded in 96-well plates (3x10^4 cells per well hFSHR clone 16 cells (CHO cells stably transfected with the human FSH receptor in 150 µl of medium). The next day, test substance dilutions were made up. For this purpose, all the substances were diluted in ice-cold buffer 1 (with or without hFSH), and the substance dilutions were placed on ice until applied to the cells. The cell supernatant was then aspirated off, and the cells were washed 2x with 200 µl of buffer 1. The cells were treated with 60 µl of the appropriate substance concentrations at 37°C for 2h. The cells were then lysed with 60 µl of buffer 2 (put onto the supernatant) (on a plate shaker at RT for 30 min). The test conjugates (cAMP-D2 and anti-cAMP cryptate, CIS Bio) were diluted in buffer 3 in accordance with the manufacturers' information. The actual mixture for measurement was pipetted into a black 96-well plate (in each case 15 µl of the cell lysate diluted with 35 µl of buffer 1; firstly 25 µl of cAMP-D2 conjugate were pipetted and, after 10 min, 25 µl of the anti-cAMP cryptate were added). This is followed by incubation at RT for 90 minutes. The measurement was carried out in a PheraStar (BMG).
Dose-effect curve (hFSH) for the human receptor: 1 e-8, 3e-9, 1 e-9, 3e-10, 1e-10, 3e-11, 1 e-11, 3e-12 mol/I. The test substances were employed in suitable dilutions in the absence (test for agonism) and in the presence of 1e-9 mol/l hFSH.
The values of the well ratio were averaged and then entered directly in SigmaPlot versus the concentrations. The maximum and minimum values were determined for each plate, and half the difference is to be regarded as IC50. […] Table 1. FSH-antagonistic effect of selected compounds in the HTRF assay

Row | Compound | IC50 [nM]
1 | COc1ccccc1C#Cc1ccc(OC(C)C)c(C(=O)N[C@H](CO)Cc2c[nH]c3ccccc23)c1 [Example 4, N-[(S)-1-Hydroxymethyl-2-(1H-indol-3-yl)-ethyl]-2-isopropoxy-5-(2-methoxy-phenylethynyl)-benzamide] | 7500
2 | CCn1cc(C[C@H](CO)NC(=O)c2cc(C#Cc3ccccc3OC)ccc2OC(C)C)c2ccccc21 [Example 24, N-[(R)-2-(1-Ethyl-1H-indol-3-yl)-1-hydroxymethyl-ethyl]-2-isopropoxy-5-(2-methoxy-phenylethynyl)-benzamide] | 20
3 | COc1ccccc1C#Cc1cc(C(=O)N[C@@H](CO)Cc2c[nH]c3ccccc23)c2ccccc2c1 [Example 6, 3-(2-Methoxy-phenylethynyl)-naphthalene-1-carboxylic acid [(R)-1-hydroxymethyl-2-(1H-indol-3-yl)-ethyl]-amide] | 100
4 | CCCOc1ccc(C#Cc2ccccc2)cc1C(=O)N[C@@H](CO)Cc1c[nH]c2ccccc12 [Example 1, N-[(R)-1-Hydroxymethyl-2-(1H-indol-3-yl)-ethyl]-5-phenylethynyl-2-propoxybenzamide] | 250
5 | CCCOc1ccc(C#Cc2ccccc2OC)cc1C(=O)N[C@@H](CO)Cc1c[nH]c2ccccc12 [Example 2, N-[(R)-1-Hydroxymethyl-2-(1H-indol-3-yl)-ethyl]-5-(2-methoxyphenylethynyl)-2-propoxy-benzamide] | 70
6 | COc1ccccc1C#Cc1ccc(OC(C)C)c(C(=O)NC(CO)Cc2c[nH]c3cc(F)c(F)cc23)c1 (racemic) [Example 23, N-[(RS)-2-(5,6-Difluoro-1H-indol-3-yl)-1-hydroxymethyl-ethyl]-2-isopropoxy-5-(2-methoxy-phenylethynyl)-benzamide] | 30
7 | CC(C)Oc1ccc(C#Cc2ccccc2)cc1C(=O)NC(CO)Cc1c[nH]c2ccc(F)cc12 (stereo not shown) [Example 21, N-[2-(5-Fluoro-1H-indol-3-yl)-1-hydroxymethyl-ethyl]-2-isopropoxy-5-phenylethynyl-benzamide] | 300
8 | COc1ccccc1C#Cc1ccc(OC(C)C)c(C(=O)N[C@H](Cc2c[nH]c3ccccc23)C(C)(C)O)c1 [Example 20, N-[(R)-2-Hydroxy-1-(1H-indol-3-ylmethyl)-2-methyl-propyl]-2-isopropoxy-5-(2-methoxy-phenylethynyl)-benzamide] | 700
9 | COc1ccccc1C#Cc1ccc(OC(C)C)c(C(=O)NC(CO)Cc2c[nH]c3ccc(F)cc23)c1 (stereo not shown) [Example 22, N-[2-(5-Fluoro-1H-indol-3-yl)-1-hydroxymethyl-ethyl]-2-isopropoxy-5-(2-methoxy-phenylethynyl)-benzamide] | 150
10 | Cc1ccccc1C#Cc1ccc(OC(C)C)c(C(=O)N[C@@H](CO)Cc2c[nH]c3ccccc23)c1 [Example 5, N-[(R)-1-Hydroxymethyl-2-(1H-indol-3-yl)-ethyl]-2-isopropoxy-5-o-tolylethynyl-benzamide] | 80
